These results are taken from US8309556B2, “Use of compounds derived from pyrimidinetrione as acetyl cholinesterase inhibitors, compositions containing said derivatives, and the uses thereof” (priority 2005, dated 2012).

The test system of test [1] is AChE1 activity of extracts of Culex pipiens larvae resistant to propoxur (G119S-mutated AChE). Put plainly: biochemical. The settings on record: IC50 on larval extracts, sensitive relative to resistant. The protocol: (§1) The inhibitory properties of the compounds of the preceding table I are tested with regard to the AChE activity by either using a normal or G119S-mutated recombinant AChE or using extracts of larvae of mosquitoes which are sensitive (carrying normal AChE) or resistant (carrying G119S-mutated AChE) to organophosphorus compounds and carbamates.
(§2) The AChE activity is measured using the method described by Bourguet et al., Pest Biochem. Physiol., 1996, 55, 122-128, and which refers to the spectroscopic method described by Ellman G. L. et al. (Biochem. Pharmacol., 1961, 7, 88-95) using acetylthiocholine as substrate.
(§3) Larvae of Culex pipiens mosquitoes which are sensitive or resistant to propoxur are milled in 400 μl of 0.25M phosphate buffer comprising 1% Triton X100. The homogenates are centrifuged at 10 000 rpm for 3 minutes.
(§4) The effectiveness of the various compounds with regard to the resistant larvae, relative to the sensitive larvae, is estimated by the sensitive/resistant ratio.

The target of test [2] is T1, AChE1 activity of extracts of Culex pipiens larvae resistant to propoxur (G119S-mutated AChE) (Culex pipiens, UniProt Q86GC8, G247S).
T1 construct: from tissue; host or cells: whole larvae of propoxur-resistant Culex pipiens, Triton X100 homogenate supernatant
Put plainly: biochemical. The protocol: as §1, §2, §3, §4

Test [3] addresses T2, normal recombinant Culex pipiens AChE1 (Culex pipiens, UniProt Q86GC8).
T2 construct: made in house; host or cells: Drosophila S2 cells (crude lysate supernatant)
The experiment in a line: Inhibition of normal recombinant AChE1 (lysates of transfected Drosophile S2 cells, Ellman method). The format is biochemical. Here is the method:
as §1, §2
(§5) The inhibitory properties of the compounds according to the invention with regard to the activity of a G119S-mutated or normal recombinant Culex pipiens AChE1 are tested according to protocol described by Weill et al., Nature, 2003, 423, 136-137.
(§6) Each compound according to the invention is tested at different concentrations on lysates of Drosophile S2 cells transfected with an empty expression vector or an expression vector expressing normal or mutated AChE1. After expression, the cells are centrifuged for 15 minutes at 14 000 rpm and are subsequently lysed in a 0.25 M phosphate buffer comprising 1% Triton X100.
(§7) 100 μl of supernatant originating from the centrifuging of the cell lysates at 10 000 rpm for 3 minutes are incubated for 15 minutes with 10 μl of each compound according to the invention at various concentrations.
(§8) The effectiveness of the various compounds with regard to the mutated AChE activity, relative to that of the normal AChE, is estimated by the sensitive/insensitive ratio.
(In Ellman's method for cholinesterases, released thiocholine reacts with DTNB.)

For test [4], the system named is larvae of mosquitoes Culex pipiens resistant to propoxur. Put plainly: Insecticidal activity: larval mortality, propoxur-resistant larvae. The format is in vivo. The note with it: for LC50: Culex pipiens, stage-4 larvae, mortality after 24 hours, log-Probit, read-out: LD50, Resistant larvae; for Sensitive/resistant ratio: LD50 larval mortality, sensitive relative to resistant. The protocol:
(§9) The insecticidal activity of the compounds according to the invention denoted in table IV below is tested on larvae of mosquitoes Culex pipiens sensitive or resistant to the action of propoxur.
(§10) The larvae resistant or sensitive to propoxur are incubated in 24-well plates, at the rate of 15 stage-4 larvae per well, in 1 ml of tap water comprising different concentrations of compounds ranging from 0.31 to 50 μg/ml.
(§11) Larval mortality is measured after incubating for 24 hours. […] Cahiers ORSTOM, série Entomologie médicale et Parasitologie, 23(2), 117-121; Raymond, M., Prato, G. and Ratsira, D. (1993). PROBIT, CNRS-UMII, Licence L93019. Avenix, 34680 St. Georges d'Orques, France.), the homogeneity of the dose/response being tested. The effectiveness of the different compounds with regard to the resistant larvae, relative to the sensitive larvae, is estimated by the sensitive/resistant ratio.

The target of test [5] is T3, G119S-mutated recombinant Culex pipiens AChE1 (Culex pipiens, UniProt Q86GC8, G247S).
T3 construct: made in house; host or cells: Drosophila S2 cells (crude lysate supernatant)
Put plainly: biochemical. The protocol:
as §1, §2, §5, §6, §7, §8

The test system of test [6] is G119S-mutated recombinant Culex pipiens AChE1. The experiment in a line: biochemical. The settings on record: IC50 normal AChE1 relative to mutated AChE1, recombinant. The protocol:
as §1, §2, §5, §6, §7, §8

For test [7], the system named is larvae of mosquitoes Culex pipiens sensitive to propoxur. Put plainly: Insecticidal activity: larval mortality, propoxur-sensitive larvae. The format is in vivo. The note with it: stage-4 larvae, mortality after 24 hours, log-Probit, read-out: LD50, Sensitive larvae. Here is the method:
as §9, §10, §11

Test [8] concerns the target T4, AChE1 activity of extracts of Culex pipiens larvae sensitive to propoxur (normal AChE) (Culex pipiens, UniProt Q86GC8).
T4 construct: from tissue; host or cells: whole larvae of propoxur-sensitive Culex pipiens, Triton X100 homogenate supernatant
Put plainly: Inhibition of AChE1 activity in extracts of propoxur-sensitive mosquito larvae. The class given is biochemical. Here is the method:
as §1, §2, §3, §4

Setting [9] is: extracts of propoxur-sensitive larvae, 15 minutes incubation, read-out: IC50, Sensitive larvae.

Read-outs that look alike come from different tables or passages of the source.

Usually IC50 stands for the midpoint of a concentration-inhibition curve.

On to `COc1cccc(N2C(=O)NC(=O)C(=Cc3ccc(C)s3)C2=O)c1` [(3), 1-(3-methoxyphenyl)-5-[(5-methyl-2-thienyl)methylene]-2,4,6(1H,3H,5H)-pyrimidinetrione], for which the Sensitive/resistant ratio in test [1] came out at 3.5; in test [4], 3.2. For the same compound, the IC50 came to 33 µM in test [2], 102 µM in test [3], 62 µM in test [5] and 118 µM in test [8] (setting [9]). Besides, the values for the LC50 in test [4] and in test [7] were 122 µM and 389 µM, respectively. In test [6], the Sensitive/insensitive ratio came out at 1.65.
Consider `Cc1ccc(C=C2C(=O)N(C)C(=O)N(C)C2=O)o1` [(4), 1,3-dimethyl-5-[(5-methyl-2-furyl)methylene]-2,4,6(1H,3H,5H)-pyrimidinetrione], for which the values for the Sensitive/resistant ratio in test [1] and in test [4] were 9.8 and 2.9, respectively. For the same compound, the IC50 in test [2] came to 7.5 µM; in test [3], 73 µM; in test [5] it was 31 µM; in test [8] (setting [9]), 74.3 µM. The figures for the LC50 in test [4] and in test [7] were 200 µM and 576 µM, respectively. The Sensitive/insensitive ratio in test [6] turned out to be 2.40.
For the compound `COc1ccc(N2C(=O)NC(=O)C(=Cc3ccc(C)o3)C2=O)cc1` [(5), 1-(4-methoxyphenyl)-5-[(5-methyl-2-furyl)methylene]-2,4,6(1H,3H,5H)-pyrimidinetrione], the figures for the Sensitive/resistant ratio in test [1] and in test [4] were 7.3 and 1.5, respectively. Moreover, the IC50 in test [2] worked out at 81 µM; in test [3], 30 µM; in test [5], 22 µM; in test [8] (setting [9]) it was 592 µM. Further, the values for the LC50 in test [4] and in test [7] were 206 µM and 300 µM, respectively. Besides, the Sensitive/insensitive ratio in test [6] amounted to 1.36.
`Cc1ccc(C=C2C(=O)NC(=O)N(c3ccc(Cl)cc3)C2=O)o1` [(6), 1-(4-chlorophenyl)-5-[(5-methyl-2-furyl)methylene]-2,4,6(1H,3H,5H)-pyrimidinetrione]: the Sensitive/resistant ratio in test [1] came out at 12.0; in test [4] it was 4.0. In addition, the IC50 in test [2] came out at 27 µM; in test [3] it was 70 µM; in test [5], 43 µM; in test [8] (setting [9]) it was 330 µM. Moreover, the LC50 in test [4] came out at 192 µM; in test [7] it was 762 µM. Moreover, the Sensitive/insensitive ratio in test [6] is reported as 1.63.
As to `C=CCN1C(=O)C(=Cc2ccc(C)o2)C(=O)NC1=S` [(8), 1-allyl-5-[(5-methyl-2-furyl)methylene]-2-thioxodihydro-4,6(1H,5H)-pyrimidinetrione], the Sensitive/resistant ratio in test [1] and in test [4] was 1.8 in each case. Also, the concentration for half-maximal inhibition (IC50) in test [2] was 51 µM; in test [3], 61 µM; in test [5], 29 µM; in test [8] (setting [9]), 91.6 µM. Moreover, the values for the LC50 in test [4] and in test [7] were 123 µM and 223 µM, respectively. In addition, the Sensitive/insensitive ratio in test [6] was found to be 2.08.
For `CNC(=O)Oc1ccccc1OC(C)C` [Propoxur, propoxur, reference compound], the Sensitive/resistant ratio in test [1] was determined as 0.00015; in test [4], 0.00063. The half-inhibitory concentration (IC50) in test [2] was 31800 µM; in test [3] it was 9 µM; in test [5] it was 6350 µM; in test [8], 4.9 µM. The LC50 is 2700 µM in test [4] and 1.7 µM in test [7]. Besides, the Sensitive/insensitive ratio in test [6] is listed as 0.0014.
